Measurements taken from publication PMC12751012, “Nanoscale Direct-to-Biology Optimization and Structural Insights into Selective S. aureus TrmD Inhibitors” (Journal of Medicinal Chemistry, 2025).

Target: T1, S. aureus TrmD (Staphylococcus aureus, UniProt Q2FZ43)
T1 construct: made in house; host or cells: E. coli BL21
T1 sequence (Q2FZ43 1-245): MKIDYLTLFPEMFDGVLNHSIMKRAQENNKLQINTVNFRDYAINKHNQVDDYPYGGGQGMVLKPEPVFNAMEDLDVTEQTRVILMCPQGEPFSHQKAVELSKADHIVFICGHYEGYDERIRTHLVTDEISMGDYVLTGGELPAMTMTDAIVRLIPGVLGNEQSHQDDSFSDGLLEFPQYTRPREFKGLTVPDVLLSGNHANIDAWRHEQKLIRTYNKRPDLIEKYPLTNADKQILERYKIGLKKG
Experiment: nanoSAR direct-to-biology FP displacement screening of crude triazoles
Assay type: binding
Conditions: crude triazole at 1 μM, assuming full conversion; 500 nM TrmD, 10 nM tracer 4; read-out: % displaced tracer
How it was run: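 Crude CuAAC triazoles from alkyne 7 and 320 diverse azides were screened by FP displacement of 10 nM tracer 4 from 500 nM S. aureus TrmD. Buffer was 40 mM Tris HCl, 100 mM NaCl, 10 mM MgCl2, 5% glycerol, pH 7.5.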

For `Cc1nc2cc(-n3cc(-c4c[nH]c5nc[nH]c(=O)c45)nn3)ccc2[nH]1` [Compound 03G03, O=C1NC=NC=2NC=C(C=3N=NN(c4cc5N=C(Nc5cc4)C)C3)C12], the inhibition at 1 µM was 21%.

`O=c1[nH]cnc2[nH]cc(-c3cn([C@H]4CCc5cccnc54)nn3)c12` [Compound 03G04, O=C1NC=NC=2NC=C(C=3N=NN(C3)[C@@H]4c5ncccc5CC4)C12] was tested, and the inhibition at 1 µM was 49%.

Work on `Cn1ccc(-n2cc(-c3c[nH]c4nc[nH]c(=O)c34)nn2)n1` [Compound 03G05, O=C1NC=NC=2NC=C(C=3N=NN(C4=NN(C=C4)C)C3)C12] yielded an inhibition at 1 µM of 25%.

For `O=c1[nH]cnc2[nH]cc(-c3cn(-c4ccc5[nH]cnc5c4)nn3)c12` [Compound 03G06, O=C1NC=NC=2NC=C(C=3N=NN(c4cc5N=CNc5cc4)C3)C12], the inhibition at 1 µM was 27%.

`COc1ccccc1[C@H](O)Cn1cc(-c2c[nH]c3nc[nH]c(=O)c23)nn1` [Compound 03G07, O=C1NC=NC=2NC=C(C=3N=NN(C3)C[C@@H](O)c4c(OC)cccc4)C12] showed an inhibition at 1 µM of 37%.

With `COC(=O)c1csc(Cn2cc(-c3c[nH]c4nc[nH]c(=O)c34)nn2)n1` [Compound 03G08, S1C(=NC(C(=O)OC)=C1)CN2N=NC(C=3C=4C(=O)NC=NC4NC3)=C2] the inhibition at 1 µM was 10%.

For `O=c1[nH]cnc2[nH]cc(-c3cn(C4COC4)nn3)c12` [Compound 03G09, O=C1NC=NC=2NC=C(C=3N=NN(C3)C4COC4)C12], the inhibition at 1 µM was 19%.

Compound `CN1CCN(CCn2cc(-c3c[nH]c4nc[nH]c(=O)c34)nn2)CC1` [Compound 03G10, O=C1NC=NC=2NC=C(C=3N=NN(C3)CC[N@H+]4CC[N@@H+](CC4)C)C12] has an inhibition at 1 µM of 11%.

`NCc1cccc(-n2cc(-c3c[nH]c4nc[nH]c(=O)c34)nn2)c1` [Compound 03G11, O=C1NC=NC=2NC=C(C=3N=NN(c4cc(ccc4)C[NH3+])C3)C12] showed an inhibition at 1 µM of 32%.

With `O=c1[nH]cnc2[nH]cc(-c3cn(C[C@H]4CCCNC4)nn3)c12` [Compound 03H01, O=C1NC=NC=2NC=C(C=3N=NN(C3)C[C@@H]4C[NH2+]CCC4)C12] the inhibition at 1 µM was 56%.

`CC(C)NC(=O)[C@H](C)n1cc(-c2c[nH]c3nc[nH]c(=O)c23)nn1` [Compound 03H02, O=C1NC=NC=2NC=C(C=3N=NN(C3)[C@H](C(=O)NC(C)C)C)C12] showed an inhibition at 1 µM of 17%.

`Cc1cccc(CCn2cc(-c3c[nH]c4nc[nH]c(=O)c34)nn2)n1` [Compound 03H03, O=C1NC=NC=2NC=C(C=3N=NN(C3)CCc4nc(ccc4)C)C12] showed an inhibition at 1 µM of 26%.

`O=c1[nH]cnc2[nH]cc(-c3cn([C@@H]4CCc5c(F)cccc54)nn3)c12` [Compound 03H04, Fc1c2c(ccc1)[C@H](N3N=NC(C=4C=5C(=O)NC=NC5NC4)=C3)CC2] gave an inhibition at 1 µM of 68%.

`O=c1[nH]cnc2[nH]cc(-c3cn(CCCN4CCCC4)nn3)c12` [Compound 03H05, O=C1NC=NC=2NC=C(C=3N=NN(C3)CCC[NH+]4CCCC4)C12] gave an inhibition at 1 µM of 40%.

`COC(=O)C1(n2cc(-c3c[nH]c4nc[nH]c(=O)c34)nn2)CC1` [Compound 03H06, O=C(OC)C1(N2N=NC(C=3C=4C(=O)NC=NC4NC3)=C2)CC1] was tested, and the inhibition at 1 µM was 24%.

Compound `O=c1[nH]cnc2[nH]cc(-c3cn(CCCc4ccccc4)nn3)c12` [Compound 03H07, O=C1NC=NC=2NC=C(C=3N=NN(C3)CCCc4ccccc4)C12] has an inhibition at 1 µM of 61%.

`O=c1[nH]cnc2[nH]cc(-c3cn(C[C@@H]4CCCCNC4)nn3)c12` [Compound 03H08, O=C1NC=NC=2NC=C(C=3N=NN(C3)C[C@H]4C[NH2+]CCCC4)C12] showed an inhibition at 1 µM of 81%.

`NCCCCCCn1cc(-c2c[nH]c3nc[nH]c(=O)c23)nn1` [Compound 03H09, O=C1NC=NC=2NC=C(C=3N=NN(C3)CCCCCC[NH3+])C12] gave an inhibition at 1 µM of 50%.

`O=c1[nH]cnc2[nH]cc(-c3cn(CCOc4ccc(Cl)cc4)nn3)c12` [Compound 03H10, Clc1ccc(OCCN2N=NC(C=3C=4C(=O)NC=NC4NC3)=C2)cc1] showed an inhibition at 1 µM of 85%.

Compound `CC(C)(C)n1cc(-c2c[nH]c3nc[nH]c(=O)c23)nn1` [Compound 03H11, O=C1NC=NC=2NC=C(C=3N=NN(C3)C(C)(C)C)C12] has an inhibition at 1 µM of 11%.
